Molecular target: T1, Vitamin D3 receptor (Homo sapiens) (UniProt P11473)
T1 sequence (whole entry): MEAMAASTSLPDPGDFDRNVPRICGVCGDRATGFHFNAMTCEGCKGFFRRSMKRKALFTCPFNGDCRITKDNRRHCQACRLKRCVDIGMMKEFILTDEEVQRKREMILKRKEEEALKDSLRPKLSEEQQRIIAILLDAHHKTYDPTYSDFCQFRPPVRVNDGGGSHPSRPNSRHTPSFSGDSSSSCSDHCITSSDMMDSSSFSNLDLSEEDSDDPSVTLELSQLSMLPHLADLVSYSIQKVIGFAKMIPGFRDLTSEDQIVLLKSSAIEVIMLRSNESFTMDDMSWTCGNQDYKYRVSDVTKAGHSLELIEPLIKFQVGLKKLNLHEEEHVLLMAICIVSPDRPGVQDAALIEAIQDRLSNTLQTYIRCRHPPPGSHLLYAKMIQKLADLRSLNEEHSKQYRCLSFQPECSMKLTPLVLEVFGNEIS
Test: Inhibition of Fluormone VDR Red binding to human VDR LBD expressed in insect cells assessed as binding ability at 1 uM by fluorescence polarization assay relative to 1,25(OH)2D3
Parameters: scale not given: the % may be the effect or the level left
Conditions: not given

| Structure (SMILES) | Activity [%] |
| --- | --- |
| CCn1c(C(=O)NCC(=O)O)ccc1C(CC)(CC)c1ccc(C#CC(O)(CC)CC)c(C)c1 | 55.4 |
| CCN(CC)CCNC(=O)c1ccc(C(CC)(CC)c2ccc(OCC(O)C(C)(C)C)c(C)c2)n1CC (stereo unspecified) | 25.5 |
| CCn1cc(C(CC)(CC)c2ccc(C#CC(O)(CC)CC)c(C)c2)cc1C(=O)N[C@@H](C)CO | 19.8 |
| CCn1cc(C(CC)(CC)c2ccc(C#CC(O)(CC)CC)c(C)c2)cc1C(=O)N[C@@H](C(=O)O)C(C)C | 5.9 |
| CCn1c(C(=O)N[C@H](C(=O)O)C(C)C)ccc1C(CC)(CC)c1ccc(C#CC(O)(CC)CC)c(C)c1 | 5.9 |
| CCN(CC)CCCNC(=O)c1ccc(C(CC)(CC)c2ccc(C#CC(O)(CC)CC)c(C)c2)n1CC | 18.8 |
| CCn1cc(C(CC)(CC)c2ccc(C#CC(O)(CC)CC)c(C)c2)cc1C(=O)NCCC(=O)O | 4.3 |
| CCn1cc(C(CC)(CC)c2ccc(C#CC(O)(CC)CC)c(C)c2)cc1C(=O)NCCN(C)C | 55.3 |
| CCn1cc(C(CC)(CC)c2ccc(C#CC(O)(CC)CC)c(C)c2)cc1C(=O)OCCO | 29.7 |
| CCn1c(C(=O)NCCCO)ccc1C(CC)(CC)c1ccc(C#CC(O)(CC)CC)c(C)c1 | 59.7 |
| CCN(CC)CCNC(=O)c1ccc(C(CC)(CC)c2ccc(C#CC(O)(CC)CC)c(C)c2)n1CC | 62.2 |
| CCn1cc(C(CC)(CC)c2ccc(C#CC(O)(CC)CC)c(C)c2)cc1C(=O)N[C@H](C(=O)O)C(C)C | 20 |
| CCn1cc(C(CC)(CC)c2ccc(C#CC(O)(CC)CC)c(C)c2)cc1C(=O)NCCCN(C)C | 31.6 |
| CCn1c(C(=O)NCCC(=O)O)ccc1C(CC)(CC)c1ccc(C#CC(O)(CC)CC)c(C)c1 | 13.6 |
| CCn1cc(C(CC)(CC)c2ccc(C#CC(O)(CC)CC)c(C)c2)cc1C(=O)NCC(=O)O | 14.6 |
| CCn1c(C(=O)NCc2ccc(OC)cc2)ccc1C(CC)(CC)c1ccc(C#CC(O)(CC)CC)c(C)c1 | 4 |
| CCN(CC)CCNC(=O)c1cc(C(CC)(CC)c2ccc(C#CC(O)(CC)CC)c(C)c2)cn1CC | 50.3 |

System: not listed separately
Test: Selectivity index, ratio of IC50 for human L02 cells to IC50 for human PC3 cells
Type: functional
Conditions: not given

| Structure (SMILES) | Ratio IC50 |
| --- | --- |
| CCN(CC)CCNC(=O)c1ccc(C(CC)(CC)c2ccc(OCC(O)C(C)(C)C)c(C)c2)n1CC (stereo unspecified) | 7.6 |
| CCn1cc(C(CC)(CC)c2ccc(C#CC(O)(CC)CC)c(C)c2)cc1C(=O)N[C@@H](C)CO | 5.9 |
| CCN(CC)CCNC(=O)c1ccc(C(CC)(CC)c2ccc(C#CC(O)(CC)CC)c(C)c2)n1CC | 3.5 |
| CCN(CC)CCNC(=O)c1cc(C(CC)(CC)c2ccc(C#CC(O)(CC)CC)c(C)c2)cn1CC | 7.9 |

System: PC-3
Test: Antiproliferative activity against human PC3 cells after 72 hrs by MTT assay
Type: functional, cell-based
Conditions: PC-3, 72 h

| Structure (SMILES) | IC50 [µM] |
| --- | --- |
| CCn1c(C(=O)NCC(=O)O)ccc1C(CC)(CC)c1ccc(C#CC(O)(CC)CC)c(C)c1 | 2.25 |
| CCN(CC)CCNC(=O)c1ccc(C(CC)(CC)c2ccc(OCC(O)C(C)(C)C)c(C)c2)n1CC (stereo unspecified) | 2.8 |
| CCn1cc(C(CC)(CC)c2ccc(C#CC(O)(CC)CC)c(C)c2)cc1C(=O)N[C@@H](C)CO | 6.05 |
| CCn1cc(C(CC)(CC)c2ccc(C#CC(O)(CC)CC)c(C)c2)cc1C(=O)N[C@@H](C(=O)O)C(C)C | 10.3 |
| CCn1c(C(=O)N[C@H](C(=O)O)C(C)C)ccc1C(CC)(CC)c1ccc(C#CC(O)(CC)CC)c(C)c1 | 5 |
| CCN(CC)CCCNC(=O)c1ccc(C(CC)(CC)c2ccc(C#CC(O)(CC)CC)c(C)c2)n1CC | 8.5 |
| CCn1c(C(=O)NCCC(=O)OC)ccc1C(CC)(CC)c1ccc(C#CC(O)(CC)CC)c(C)c1 | 36.3 |
| CCn1cc(C(CC)(CC)c2ccc(C#CC(O)(CC)CC)c(C)c2)cc1C(=O)NCCC(=O)O | > 50 |
| C#CCCOC(=O)c1ccc(C(CC)(CC)c2ccc(C#CC(O)(CC)CC)c(C)c2)n1CC | > 50 |
| CCn1cc(C(CC)(CC)c2ccc(C#CC(O)(CC)CC)c(C)c2)cc1C(=O)NCCN(C)C | 10.1 |
| CCn1cc(C(CC)(CC)c2ccc(C#CC(O)(CC)CC)c(C)c2)cc1C(=O)OCCO | 11.4 |
| CCn1c(C(=O)NCCCO)ccc1C(CC)(CC)c1ccc(C#CC(O)(CC)CC)c(C)c1 | > 50 |
| CCn1cc(C(CC)(CC)c2ccc(C#CC(O)(CC)CC)c(C)c2)cc1C(=O)NCC(=O)OC | 17.4 |
| CCN(CC)CCNC(=O)c1ccc(C(CC)(CC)c2ccc(C#CC(O)(CC)CC)c(C)c2)n1CC | 5.85 |
| CCCCC(=O)c1ccc(C(CC)(CC)c2ccc(C#CC(O)(CC)CC)c(C)c2)n1CC | > 50 |
| CCn1cc(C(CC)(CC)c2ccc(C#CC(O)(CC)CC)c(C)c2)cc1C(=O)N[C@H](C(=O)O)C(C)C | 3.75 |
| CCn1cc(C(CC)(CC)c2ccc(C#CC(O)(CC)CC)c(C)c2)cc1C(=O)NCCCN(C)C | 15.1 |
| CCCCC(=O)c1cc(C(CC)(CC)c2ccc(C#CC(O)(CC)CC)c(C)c2)cn1CC | 48.1 |
| CCn1c(C(=O)NCCC(=O)O)ccc1C(CC)(CC)c1ccc(C#CC(O)(CC)CC)c(C)c1 | 5.13 |
| CCn1cc(C(CC)(CC)c2ccc(C#CC(O)(CC)CC)c(C)c2)cc1C(=O)NCC(=O)O | 6.3 |
| CCn1c(C(=O)On2nnc3ccccc32)ccc1C(CC)(CC)c1ccc(C#CC(O)(CC)CC)c(C)c1 | > 50 |
| CCn1c(C(=O)NCc2ccc(OC)cc2)ccc1C(CC)(CC)c1ccc(C#CC(O)(CC)CC)c(C)c1 | > 50 |
| CCN(CC)CCNC(=O)c1cc(C(CC)(CC)c2ccc(C#CC(O)(CC)CC)c(C)c2)cn1CC | 5.35 |

Molecular target: T2, Vitamin D3 receptor (Homo sapiens, UniProt P11473)
T2 sequence (P11473 whole entry): T1 sequence (whole entry)
Test: Inhibition of Fluormone VDR Red binding to human VDR LBD expressed in insect cells assessed as binding ability by fluorescence polarization assay
Conditions: not given

| Structure (SMILES) | IC50 [µM] |
| --- | --- |
| CCn1c(C(=O)NCC(=O)O)ccc1C(CC)(CC)c1ccc(C#CC(O)(CC)CC)c(C)c1 | 0.0857 |
| CCN(CC)CCNC(=O)c1ccc(C(CC)(CC)c2ccc(OCC(O)C(C)(C)C)c(C)c2)n1CC (stereo unspecified) | 0.0768 |
| CCn1cc(C(CC)(CC)c2ccc(C#CC(O)(CC)CC)c(C)c2)cc1C(=O)NCCN(C)C | 0.0513 |
| CCn1c(C(=O)NCCCO)ccc1C(CC)(CC)c1ccc(C#CC(O)(CC)CC)c(C)c1 | 0.123 |
| CCN(CC)CCNC(=O)c1ccc(C(CC)(CC)c2ccc(C#CC(O)(CC)CC)c(C)c2)n1CC | 0.0732 |
| CCN(CC)CCNC(=O)c1cc(C(CC)(CC)c2ccc(C#CC(O)(CC)CC)c(C)c2)cn1CC | 0.0565 |

System: not listed separately
Test: Selectivity index, ratio of IC50 for human L02 cells to IC50 for human MCF7 cells
Type: functional
Conditions: not given

| Structure (SMILES) | Ratio IC50 |
| --- | --- |
| CCN(CC)CCNC(=O)c1ccc(C(CC)(CC)c2ccc(OCC(O)C(C)(C)C)c(C)c2)n1CC (stereo unspecified) | 15.5 |
| CCn1cc(C(CC)(CC)c2ccc(C#CC(O)(CC)CC)c(C)c2)cc1C(=O)N[C@@H](C)CO | 18.5 |
| CCN(CC)CCNC(=O)c1ccc(C(CC)(CC)c2ccc(C#CC(O)(CC)CC)c(C)c2)n1CC | 5.4 |
| CCN(CC)CCNC(=O)c1cc(C(CC)(CC)c2ccc(C#CC(O)(CC)CC)c(C)c2)cn1CC | 23.4 |

System: L02
Test: Antiproliferative activity against human L02 cells after 72 hrs by MTT assay
Type: cell-based
Conditions: L02, 72 h

| Structure (SMILES) | IC50 [µM] |
| --- | --- |
| CCN(CC)CCNC(=O)c1ccc(C(CC)(CC)c2ccc(OCC(O)C(C)(C)C)c(C)c2)n1CC (stereo unspecified) | 21.2 |
| CCn1cc(C(CC)(CC)c2ccc(C#CC(O)(CC)CC)c(C)c2)cc1C(=O)N[C@@H](C)CO | 35.4 |
| CCN(CC)CCNC(=O)c1ccc(C(CC)(CC)c2ccc(C#CC(O)(CC)CC)c(C)c2)n1CC | 20.5 |
| CCN(CC)CCNC(=O)c1cc(C(CC)(CC)c2ccc(C#CC(O)(CC)CC)c(C)c2)cn1CC | 42.1 |

System: MCF7
Test: Antiproliferative activity against human MCF7 cells after 72 hrs by MTT assay
Type: functional, cell-based
Conditions: MCF7, 72 h

| Structure (SMILES) | IC50 [µM] |
| --- | --- |
| CCn1c(C(=O)NCC(=O)O)ccc1C(CC)(CC)c1ccc(C#CC(O)(CC)CC)c(C)c1 | 5.14 |
| CCN(CC)CCNC(=O)c1ccc(C(CC)(CC)c2ccc(OCC(O)C(C)(C)C)c(C)c2)n1CC (stereo unspecified) | 1.37 |
| CCn1cc(C(CC)(CC)c2ccc(C#CC(O)(CC)CC)c(C)c2)cc1C(=O)N[C@@H](C)CO | 1.91 |
| CCn1cc(C(CC)(CC)c2ccc(C#CC(O)(CC)CC)c(C)c2)cc1C(=O)N[C@@H](C(=O)O)C(C)C | 18 |
| CCn1c(C(=O)N[C@H](C(=O)O)C(C)C)ccc1C(CC)(CC)c1ccc(C#CC(O)(CC)CC)c(C)c1 | 13 |
| CCN(CC)CCCNC(=O)c1ccc(C(CC)(CC)c2ccc(C#CC(O)(CC)CC)c(C)c2)n1CC | 17.8 |
| CCn1c(C(=O)NCCC(=O)OC)ccc1C(CC)(CC)c1ccc(C#CC(O)(CC)CC)c(C)c1 | > 50 |
| CCn1cc(C(CC)(CC)c2ccc(C#CC(O)(CC)CC)c(C)c2)cc1C(=O)NCCC(=O)O | 30.6 |
| C#CCCOC(=O)c1ccc(C(CC)(CC)c2ccc(C#CC(O)(CC)CC)c(C)c2)n1CC | > 50 |
| CCn1cc(C(CC)(CC)c2ccc(C#CC(O)(CC)CC)c(C)c2)cc1C(=O)NCCN(C)C | 13.4 |
| CCn1cc(C(CC)(CC)c2ccc(C#CC(O)(CC)CC)c(C)c2)cc1C(=O)OCCO | 1.88 |
| CCn1c(C(=O)NCCCO)ccc1C(CC)(CC)c1ccc(C#CC(O)(CC)CC)c(C)c1 | 5.95 |
| CCn1cc(C(CC)(CC)c2ccc(C#CC(O)(CC)CC)c(C)c2)cc1C(=O)NCC(=O)OC | 26.5 |
| CCN(CC)CCNC(=O)c1ccc(C(CC)(CC)c2ccc(C#CC(O)(CC)CC)c(C)c2)n1CC | 3.77 |
| CCCCC(=O)c1ccc(C(CC)(CC)c2ccc(C#CC(O)(CC)CC)c(C)c2)n1CC | > 50 |
| CCn1cc(C(CC)(CC)c2ccc(C#CC(O)(CC)CC)c(C)c2)cc1C(=O)N[C@H](C(=O)O)C(C)C | 12.6 |
| CCn1cc(C(CC)(CC)c2ccc(C#CC(O)(CC)CC)c(C)c2)cc1C(=O)NCCCN(C)C | 20.2 |
| CCCCC(=O)c1cc(C(CC)(CC)c2ccc(C#CC(O)(CC)CC)c(C)c2)cn1CC | > 50 |
| CCn1c(C(=O)NCCC(=O)O)ccc1C(CC)(CC)c1ccc(C#CC(O)(CC)CC)c(C)c1 | > 50 |
| CCn1cc(C(CC)(CC)c2ccc(C#CC(O)(CC)CC)c(C)c2)cc1C(=O)NCC(=O)O | 17.5 |
| CCn1c(C(=O)On2nnc3ccccc32)ccc1C(CC)(CC)c1ccc(C#CC(O)(CC)CC)c(C)c1 | > 50 |
| CCn1c(C(=O)NCc2ccc(OC)cc2)ccc1C(CC)(CC)c1ccc(C#CC(O)(CC)CC)c(C)c1 | > 50 |
| CCN(CC)CCNC(=O)c1cc(C(CC)(CC)c2ccc(C#CC(O)(CC)CC)c(C)c2)cn1CC | 1.8 |
